The results in this text go back to BindingDB's records for PubMed 11546835 (Mcgill University, 2001).

Where “and” joins values, the source holds several entries; their conditions need not be identical. Equal values may be shown once. Residues, ends and D or L forms follow the SMILES beside them.

Chain of Nociceptin receptor (P35377 whole entry): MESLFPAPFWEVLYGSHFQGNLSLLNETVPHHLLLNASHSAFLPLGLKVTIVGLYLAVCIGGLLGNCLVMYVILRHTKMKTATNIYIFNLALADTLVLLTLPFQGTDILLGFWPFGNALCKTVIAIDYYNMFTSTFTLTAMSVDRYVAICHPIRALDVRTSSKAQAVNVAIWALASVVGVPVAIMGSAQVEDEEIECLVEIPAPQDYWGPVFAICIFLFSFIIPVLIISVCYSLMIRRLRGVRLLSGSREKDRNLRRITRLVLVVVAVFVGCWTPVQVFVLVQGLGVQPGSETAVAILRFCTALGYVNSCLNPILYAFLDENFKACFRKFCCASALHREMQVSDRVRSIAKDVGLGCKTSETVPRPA

This assay concerns the target Nociceptin receptor (Mus musculus, UniProt P35377).
For the compound `Oc1ccc2c3c1OC1c4[nH]c5c(c4CC4(O)CN(CCC314)C(C1CC1)C2)CC1(O)CN2CCC13c1c(ccc(O)c1OC53)CC2C1CC1` (stereo not given) [CAS_105618-26-6], the Ki (in general, the dissociation constant of the complex between target and ligand, obtained from inhibition or displacement) was 898 nM and 7500 nM.

As to `CSCC[C@H](NC(=O)[C@H](Cc1ccccc1)NC(=O)CNC(=O)CNC(=O)[C@@H](N)Cc1ccc(O)cc1)C(=O)O` [2-[(S)-2-(2-{2-[(S)-2-Amino-3-(4-hydroxy-phenyl)-propionylamino]-acetylamino}-acetylamino)-1-oxo-3-phenyl-propylamino]-4-methylsulfanyl-butyric acid], the Ki turned out to be 1000 nM.

Compound `CC(C)C[C@H](NC(=O)[C@H](Cc1ccccc1)NC(=O)CNC(=O)CNC(=O)[C@@H](N)Cc1ccc(O)cc1)C(=O)N[C@@H](CCCNC(=N)N)C(=O)N[C@@H](CCCCN)C(=O)N[C@@H](Cc1ccc(O)cc1)C(=O)N1CCC[C@H]1C(=O)N[C@@H](CCCCN)C(=O)O` [CB0427223] (H-YGGFLRKYPK-OH) displayed an inhibitory constant (Ki) of 192 nM.

Consider `CC(C)C[C@H](NC(=O)[C@H](Cc1ccccc1)NC(=O)CNC(=O)CNC(=O)[C@@H](N)Cc1ccc(O)cc1)C(=O)N[C@@H](CCCN=C(N)N)C(=O)N[C@@H](CCCN=C(N)N)C(=O)N[C@@H](CCC(N)=O)C(=O)N[C@@H](Cc1ccccc1)C(=O)N[C@@H](CCCCN)C(=O)N[C@H](C(=O)N[C@H](C(=O)N[C@H](C(=O)O)[C@@H](C)O)C(C)C)C(C)C` [Dynorphin B (1-13)], for which the Ki was 33.9 nM and 247 nM.

In the case of `C[C@H](NC(=O)CNC(=O)[C@@H](NC(=O)[C@H](Cc1ccccc1)NC(=O)CNC(=O)CNC(=O)[C@@H](N)Cc1ccccc1)[C@@H](C)O)C(=O)O` [OFQ/N (1-7)] (H-FGGFTGA-OH), the Ki is 440 nM and 360 nM.
